Reference: publication PMC3486515 (Investigational new drugs, 2010)
Values joined by “and” are separate entries in the source; they are usually repeats but may differ in a detail not shown here. Identical values can stand only once. “Also recorded” adds a separate entry of the source.

Key:
[1] = system: patients with advanced solid tumors
[2] = system: refractory chronic lymphocytic leukemia (CLL); details: cited from earlier work
[3] = Flavopiridol protein binding in patient PK samples by micro-equilibrium dialysis; details: for concentration at 4 h: human, plasma, intravenous, Mean free flavopiridol plasma concentration at the end of the 4-hour infusion
[4] = system: patients with advanced solid tumors; details: human, in vivo
advanced solid tumors = assay: Objective response by RECIST; format: in vivo, human
IL-6 = assay: Serum cytokine levels by cytokine bead array and ELISA; details: prior to and after flavopiridol infusion
[5] = Plasma pharmacokinetics, LC/MS/MS, non-compartmental analysis
refractory solid tumors = details: 72-hr infusion schedule; cited from earlier work
[6] = All dose levels, 34 pts, first dose, mean ± SD
[7] = dose level 1, 1B (30+30 mg/m^2 bolus+infusion), 6 pts, first dose, mean ± SD
[8] = dose level 2, 2B (30+45 mg/m^2 bolus+infusion), 9 pts, first dose, mean ± SD
[9] = dose level 3 (30+60 mg/m^2 bolus+infusion), 9 pts, first dose, mean ± SD
[10] = dose level 4 (30+75 mg/m^2 bolus+infusion), 2 pts, first dose, mean ± SD
[11] = dose level −1, −1B (20+20 mg/m^2 bolus+infusion), 8 pts, first dose, mean ± SD

C[C@@H]1C[C@H]2[C@@H]3CCC4=CC(=O)C=C[C@]4(C)[C@@]3(F)[C@@H](O)C[C@]2(C)[C@@]1(O)C(=O)CO [dexamethasone]
Effect on frequency/incidence of CKRS ([1]; prophylactic dexamethasone 20 mg prior to bolus dose of flavopiridol): did not impact the frequency of CKRS; also recorded: did not impact the incidence of CKRS; also recorded: not associated with decreased occurrence of CKRS

CN1CC[C@H](c2c(O)cc(O)c3c(=O)cc(-c4ccccc4Cl)oc23)[C@H](O)C1 [flavopiridol]
Partial response rate ([2]; PK-directed schedule, single agent, CLL): 40%
Response rate ([2]; phase II study, refractory CLL patients): approximately 50%
MTD (bolus+infusion) ([2]; refractory CLL patients): 30+50 mg/m^2
Maximum-tolerated dose (MTD), infusion ([2]; refractory CLL, 4-hr infusion): 50 mg/m^2
Maximum-tolerated dose (MTD), bolus ([2]; refractory CLL, 30-minute loading dose): 30 mg/m^2
Maximum-tolerated dose, bolus ([1]; 30-min bolus, weekly for 4 weeks on a 6-week cycle, patients with advanced solid tumors, dose level −1B): 20 mg/m^2
Maximum-tolerated dose, infusion ([1]; infusion over 4 hours after bolus, weekly for 4 weeks on a 6-week cycle, patients with advanced solid tumors, dose level −1B): 20 mg/m^2
Deaths attributed to CKRS ([1]; on study): One death on the study was attributed to CKRS
MTD (bolus+infusion) ([1]; patients with advanced solid tumors): 20+20 mg/m^2
concentration at 4 h ([3]; patients who did not experience CKRS (N=20), cycle 1): 0.02 ± 0.009 µM
concentration at 4 h ([3]; patients with grade 1 or higher CKRS during cycle 1): 0.035 ± 0.026 µM
Mean free flavopiridol AUC ([3]; patients with CKRS during cycle 1): 0.318 ± 0.22 µM·h
Mean free flavopiridol AUC ([3]; patients without observed CKRS during cycle 1): 0.215 ± 0.103 µM·h
Adverse event: Deep venous Thrombosis [4]: 1
Adverse event: Diaphories [4]: 8 (24) N (%)
Adverse event: Dizziness [4]: 6 (35) N (%)
Adverse event: Dysphagia [4]: 1
Adverse event: Dyspnea [4]: 5
Adverse event: Elevated Alk Phos [4]: 2
Adverse event: Febrile neutropenia [4]: 1
Adverse event: Fever [4]: 4 (12) N (%)
Adverse event: Hyperbilrubinemia [4]: 4 (12) N (%)
Adverse event: Hypercalcemia [4]: 1
Adverse event: Hypoxemia [4]: 2
Adverse event: Nausea and/or vomiting [4]: 20 (59) N (%)
Adverse event: Somonolence [4]: 4 (12) N (%)
Adverse event: Tumor lysis syndrome [4]: 1
Patients off study for grade 3 AEs [4]: 6 patients
Patients off study for grade 3 AST/ALT [4]: 2 n
Patients off study for grade 3 CKRS [4]: 4 n
Patients with CKRS [4]: 41%
Time to resolution of CKRS symptoms [4]: ≤ 6 h
Patients off study for progressive disease (PD) (advanced solid tumors; 34 patients): 18 patients
Antitumor (objective) responses (advanced solid tumors; 34 patients with advanced solid tumors, RECIST): No antitumor responses were observed; also recorded: No objective responses were observed
Patients with PD (advanced solid tumors; after completing two cycles): seventeen
IL-6 serum levels (IL-6): associated with flavopiridol infusion
Other serum cytokines (IL-2, IL-4, IL-10, TNF-α, IFNγ) (IL-6): No other cytokines were associated with flavopiridol infusion
Mean end-of-infusion concentration (C0.5) ([5]; 20 mg/m^2 bolus dose): 910 ± 260 µM
Mean end-of-infusion concentration (C0.5) ([5]; 30 mg/m^2 bolus dose): 1420 ± 660 µM
Dose proportionality of plasma concentrations (Cmax) and AUC ([5]; 5 doses from 40 to 105 mg/m^2): increased proportionally with dose; also recorded: proportional increases in Cmax and AUC
AUCO-∞ [5, 6]: 13.6 ± 7.0 hr x µM
CL [5, 6]: 12.7 ± 6.3 L/hr/m^2
V2 (volume of distribution) [5, 6]: 241 ± 149 L/m^2
AUCO-∞ [5, 7]: 13.2 ± 3.4 hr x µM
CL [5, 7]: 11.9 ± 3.0 L/hr/m^2
V2 (volume of distribution) [5, 7]: 198 ± 82 L/m^2
AUCO-∞ [5, 8]: 14.3 ± 6.8 hr x µM
CL [5, 8]: 15.3 ± 5.8 L/hr/m^2
Cmax [5, 8]: 1.79 ± 0.83 µM
V2 (volume of distribution) [5, 8]: 307 ± 155 L/m^2
AUCO-∞ [5, 9]: 16.6 ± 8.6 hr x µM
CL [5, 9]: 16.5 ± 7.0 L/hr/m^2
V2 (volume of distribution) [5, 9]: 309 ± 168 L/m^2
AUCO-∞ [5, 10]: 20.8 hr x µM and 20.8 ± 5.6 hr x µM
CL [5, 10]: 13.1 ± 3.6 L/hr/m^2
Cmax [5, 10]: 2.71 ± 1.08 µM
V2 (volume of distribution) [5, 10]: 260 ± 28 L/m^2
AUCO-∞ [5, 11]: 7.9 hr x µM and 7.9 ± 4.2 hr x µM
CL [5, 11]: 6.1 ± 2.5 L/hr/m^2
V2 (volume of distribution) [5, 11]: 117 ± 99 L/m^2
AUC(0-inf) ([5]; human, plasma, intravenous, AUC0–∞, overall mean, all doses (40–105 mg/m^2), 34 patients): 13.6 ± 7 µM·h
half-life ([5]; human, plasma, intravenous, T1/2, All dose levels, 34 pts, first dose, mean ± SD): 14.2 ± 8.4 h
Tmax ([5]; human, plasma, intravenous, Tmax, All dose levels, 34 pts, first dose, mean ± SD): 2.02 ± 1.87 h
Major dose-limiting toxicity (DLT) (refractory solid tumors): Secretory diarrhea
